# Reference: ChEMBL document CHEMBL1201862, “PubChem BioAssay data set” (2004)
#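 Compound exposure: 48 hours, 5 concentrations, 96-well plates. GI50 marks 50% less growth.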 The source made the active and inactive calls. Rule as the data show it: active = GI50 up to about 1.1 µM and inactive = higher. *1 amine or outer side, *2 acyl side, *3 side chain or, on linkers, in order; H or OH if unused. Where a SMILES comes first, the peptide text is derived from it. [ ]: non-standard residue; d: D form. The star is where a group is joined. ξ: configuration not given here. X26 = O=C([C@H]1CCC[C@H]1N[*:1])[*:2]; ξW = NC(Cc1c[nH]c2ccccc12)C(=O)O; ξF = NC(Cc1ccccc1)C(=O)O; Boc = CC(C)(C)OC(=O)*; ξK = NCCCCC(N)C(=O)O; ξT = CC(O)C(N)C(=O)O; tBu = CC(C)(C)*
# Tests used:
# Experiment in all cases: NCI-60 cell line screen, 48 h
# 786-0 = tested on: 786-0
# COLO 205 = tested on: COLO 205
# HCT-15 = tested on: HCT-15
# HL-60 = tested on: HL-60
# HOP-92 = tested on: HOP-92
# HT-29 = tested on: HT-29
# M14 = tested on: M14
# MDA-MB-231 = tested on: MDA-MB-231
# MDA-MB-435 = tested on: MDA-MB-435
# MDA-N = tested on: MDA-N
# NCI-H460 = tested on: NCI-H460
# OVCAR-8 = tested on: OVCAR-8
# SF-295 = tested on: SF-295
# SK-MEL-28 = tested on: SK-MEL-28
# SR = tested on: SR
# T47D = tested on: T47D
# U-251 = tested on: U-251
# UACC-257 = tested on: UACC-257
# UACC-62 = tested on: UACC-62
# BT-549 = tested on: BT-549
SMILES,GI50 (786-0),GI50 (COLO 205),GI50 (HCT-15) [µM],GI50 (HL-60),GI50 (HOP-92),GI50 (HT-29),GI50 (M14),GI50 (MDA-MB-231),GI50 (MDA-MB-435),GI50 (MDA-N),GI50 (NCI-H460),GI50 (OVCAR-8),GI50 (SF-295),GI50 (SK-MEL-28),GI50 (SR),GI50 (T47D),GI50 (U-251),GI50 (UACC-257),GI50 (UACC-62),GI50 (BT-549)
CCC1=C(c2ccc(OC)cc2)CC[C@]2(CCNC2=O)[C@@H]1C,42.5 µM (inactive),14.4 µM (inactive),28.7,51.3 µM (inactive),40.7 µM (inactive),23.2 µM (inactive),26.4 µM (inactive),39.1 µM (inactive),19.6 µM (inactive),22.5 µM (inactive),28.2 µM (inactive),42.4 µM (inactive),30 µM (inactive),30.5 µM (inactive),24.2 µM (inactive),32.4 µM (inactive),29.9 µM (inactive),23.7 µM (inactive),24.4 µM (inactive),–
COc1ccc(C2C(C=O)C(N3CCN(C)CC3)=Nc3nc4ccccc4n32)cc1 (configuration not stated),20 µM (inactive),16.8 µM (inactive),17.8,2.09 µM (inactive),4.83 µM (inactive),15.8 µM (inactive),17.4 µM (inactive),12.1 µM (inactive),15.5 µM (inactive),–,25.2 µM (inactive),16.2 µM (inactive),19.9 µM (inactive),17 µM (inactive),0.0382 µM (active),11.7 µM (inactive),17.7 µM (inactive),16.6 µM (inactive),14.1 µM (inactive),14 µM (inactive)
CC(=O)Oc1c(OC(C)C)cc(=O)n2ccsc12,> 100 µM (inactive),30.1 µM (inactive),> 100,18.5 µM (inactive),> 100 µM (inactive),> 100 µM (inactive),> 100 µM (inactive),> 100 µM (inactive),17.3 µM (inactive),> 100 µM (inactive),> 100 µM (inactive),> 100 µM (inactive),> 100 µM (inactive),> 100 µM (inactive),–,–,> 100 µM (inactive),> 100 µM (inactive),> 100 µM (inactive),> 100 µM (inactive)
O=C(/C=C(\Nc1ccccc1O)c1ccccc1)C(=O)NC12CC3CC(CC(C3)C1)C2,> 10 µM (inactive),> 10 µM (inactive),> 10,3.52 µM (inactive),–,2.41 µM (inactive),> 10 µM (inactive),> 10 µM (inactive),> 10 µM (inactive),> 10 µM (inactive),> 10 µM (inactive),> 10 µM (inactive),> 10 µM (inactive),> 10 µM (inactive),5.33 µM (inactive),> 10 µM (inactive),> 10 µM (inactive),> 10 µM (inactive),–,–
CCOC(=O)c1nc2ccc(C(F)(F)F)cc2nc1Oc1ccc(F)cc1,> 100 µM (inactive),> 100 µM (inactive),> 100,> 100 µM (inactive),> 100 µM (inactive),> 100 µM (inactive),> 100 µM (inactive),> 100 µM (inactive),> 100 µM (inactive),–,> 100 µM (inactive),> 100 µM (inactive),> 100 µM (inactive),> 100 µM (inactive),> 100 µM (inactive),> 100 µM (inactive),> 100 µM (inactive),> 100 µM (inactive),> 100 µM (inactive),> 100 µM (inactive)
CC(=O)C(=C(I)I)c1ccccc1,19.7 µM (inactive),15.5 µM (inactive),29.3,24.7 µM (inactive),37.2 µM (inactive),17.9 µM (inactive),14.5 µM (inactive),22.3 µM (inactive),14.6 µM (inactive),15.2 µM (inactive),33.4 µM (inactive),18.3 µM (inactive),25.9 µM (inactive),19.5 µM (inactive),13.1 µM (inactive),20.4 µM (inactive),17.5 µM (inactive),16.7 µM (inactive),25.5 µM (inactive),–
COC(=O)c1c(O)ccc2c1c1c(n2Cc2cc(OC)cc(OC)c2)C(=O)c2ccccc2C1,92 µM (inactive),13.2 µM (inactive),32.1,> 100 µM (inactive),–,11.7 µM (inactive),37.8 µM (inactive),24 µM (inactive),10.9 µM (inactive),10.8 µM (inactive),31 µM (inactive),43.3 µM (inactive),52.6 µM (inactive),16.1 µM (inactive),13 µM (inactive),–,47.8 µM (inactive),67 µM (inactive),49.2 µM (inactive),55.5 µM (inactive)
Oc1ccc(N=C2CCC(=C(c3ccccc3)c3ccc(Nc4ccc(O)cc4)cc3)CC2)cc1,78.7 µM (inactive),33.3 µM (inactive),> 100,–,> 100 µM (inactive),48.8 µM (inactive),> 100 µM (inactive),75.5 µM (inactive),34.5 µM (inactive),–,85.7 µM (inactive),48.5 µM (inactive),> 100 µM (inactive),> 100 µM (inactive),19.7 µM (inactive),–,47.3 µM (inactive),> 100 µM (inactive),55.8 µM (inactive),–
CC(C)(C)c1cc(CC2C(=O)c3ccccc3C2=O)cc(C(C)(C)C)c1O,3.9 µM (inactive),3.6 µM (inactive),2.9,2.54 µM (inactive),0.272 µM (active),3.13 µM (inactive),2.69 µM (inactive),2.59 µM (inactive),3.78 µM (inactive),7.5 µM (inactive),4.48 µM (inactive),3.05 µM (inactive),3.24 µM (inactive),–,2.88 µM (inactive),–,3.87 µM (inactive),3.21 µM (inactive),3.58 µM (inactive),3.45 µM (inactive)
Cc1nc(-c2cc3c(ccc4ccccc43)oc2=O)cc2c1c(=O)oc1ccc3ccccc3c12,> 100 µM (inactive),> 100 µM (inactive),> 100,> 100 µM (inactive),> 100 µM (inactive),> 100 µM (inactive),> 100 µM (inactive),> 100 µM (inactive),> 100 µM (inactive),–,> 100 µM (inactive),> 100 µM (inactive),> 100 µM (inactive),> 100 µM (inactive),> 100 µM (inactive),> 100 µM (inactive),> 100 µM (inactive),> 100 µM (inactive),> 100 µM (inactive),> 100 µM (inactive)
COc1ccc2c(c1)C=C([N+](=O)[O-])C(C1OC(C)(C)OC1C1COC(C)(C)O1)O2 (configuration not stated),12.8 µM (inactive),10.8 µM (inactive),1.95,1.86 µM (inactive),16.1 µM (inactive),1.97 µM (inactive),2.07 µM (inactive),2.36 µM (inactive),3.06 µM (inactive),–,3.64 µM (inactive),2.85 µM (inactive),7.89 µM (inactive),1.74 µM (inactive),1.55 µM (inactive),12 µM (inactive),3.01 µM (inactive),2.77 µM (inactive),1.82 µM (inactive),2.74 µM (inactive)
CCc1c(O)cc(=O)oc1-c1ccc(OC)c(OC)c1,> 100 µM (inactive),> 100 µM (inactive),> 100,–,> 100 µM (inactive),> 100 µM (inactive),> 100 µM (inactive),> 100 µM (inactive),> 100 µM (inactive),–,> 100 µM (inactive),> 100 µM (inactive),> 100 µM (inactive),> 100 µM (inactive),–,> 100 µM (inactive),> 100 µM (inactive),> 100 µM (inactive),> 100 µM (inactive),> 100 µM (inactive)
Cc1ccc(-c2c(C#N)c(O)n(NS(=O)(=O)c3ccccc3)c(=O)c2C#N)cc1,> 100 µM (inactive),> 100 µM (inactive),> 100,> 100 µM (inactive),> 100 µM (inactive),> 100 µM (inactive),> 100 µM (inactive),> 100 µM (inactive),> 100 µM (inactive),–,> 100 µM (inactive),> 100 µM (inactive),> 100 µM (inactive),> 100 µM (inactive),–,–,> 100 µM (inactive),> 100 µM (inactive),> 100 µM (inactive),> 100 µM (inactive)
CC(=O)Oc1ccn2nc(C)c(Cc3c(C)nn4ccc(OC(C)=O)cc34)c2c1,> 100 µM (inactive),–,> 100,39.1 µM (inactive),> 100 µM (inactive),> 100 µM (inactive),> 100 µM (inactive),> 100 µM (inactive),25.1 µM (inactive),> 10 µM (inactive),50.9 µM (inactive),> 100 µM (inactive),23 µM (inactive),> 100 µM (inactive),> 100 µM (inactive),> 100 µM (inactive),62.7 µM (inactive),47.1 µM (inactive),98.2 µM (inactive),–
CC(OC(C)(C)C)C1NC(=O)C(CCCCNC(=O)OC(C)(C)C)NC(=O)C(Cc2c[nH]c3ccccc23)NC(=O)C(Cc2ccccc2)NC(=O)[C@H]2CCC[C@H]2NC(=O)C(Cc2ccccc2)NC1=O (some centres not stated) (cyclo([X26][ξF][ξW][ξK](Boc)[ξT](tBu)[ξF])),> 100 µM (inactive),18.9 µM (inactive),> 100,> 100 µM (inactive),> 100 µM (inactive),11.4 µM (inactive),28.3 µM (inactive),31.8 µM (inactive),29.9 µM (inactive),56.2 µM (inactive),38.2 µM (inactive),18.2 µM (inactive),9.79 µM (inactive),> 100 µM (inactive),72.3 µM (inactive),15.2 µM (inactive),25.5 µM (inactive),5.41 µM (inactive),28.5 µM (inactive),–
